Results reported in US8633166B2, “Methicillin-resistant Staphylococcus aureus active metabolites” (priority 2009, dated 2014).

Assays:
[1] = test system: Methicillin-resistant Staphylococcus aureus; test: In vivo MRSA assay, thigh infection in a murine model; design: species or system Mice (CD-1); details: for number of MRSA recovered from muscle tissue: 48 hours, neutropenic mice
Procedure: The in vivo antimicrobial activity for the isolated glycosides is represented in FIGS. 2A and 2B. Mice (CD-1) were purchased from Harlan Inc. and acclimatized up to 5 days before use. Food and water were available ad libitum throughout the study. They were rendered neutropenic by two injections of cyclophosphamide (100 mg/kg) given intraperitoneally, one and four days before infection. A volume of 50 uL suspension of Methicillin-resistant Staphylococcus aureus (1.5×10^6 live organisms) was injected intramuscularly (1M) into each of the two rear thighs. Each thigh was considered as an individual data point (total of 4 data points for each treatment). These mice were randomly distributed into the control or treatment groups (n=2/group).
Treatment with the test compound (1) was initiated via the intraperitoneal route 2 hrs after thigh inoculation. Control animals were concurrently administered saline (mock treatment) or vancomycin in the same volume as those receiving compound (1). All animals were sacrificed after 48 hours by CO2 inhalation. Immediately following sacrifice, thigh tissue was collected from the animals, weighed, and homogenized in 5.0 mL of saline. Thigh muscle homogenate was then processed for microbiological assay to determine the number of MRSA cfu per gram of muscle tissue.

[2] = Maximum tolerated dose, preliminary experiment; format: in vivo, Mice (CD-1); details: 20 mg/kg IP for two days
Procedure: The number of MRSA isolated from vancomycin treated animals was 2.2×10^7 g of tissue, a reduction of 72% compared to vehicle control. Similarly, the number of MRSA recovered after treatment with compound (I) at 3 mg/kg and 15 mg/kg were 2.6×10^7 and 1.8×10^7 respectively, which correspond to a reduction of 67% and 78% as compared to vehicle control. […] To determine the maximum tolerated dose in the preliminary experiment, a maximum of 20 mg/kg of compound (1) was giving IP for two days.

streptococci = test: In vitro MIC, streptococci; format: cell-based, Streptococcus; details: highest concentrations considered for MIC readings
Procedure: All test articles were dissolved in DMSO. Stock solutions were prepared at 40-fold the highest concentration in the test plate. The final concentration of DMSO in the test system was 2.5%.
The medium employed for the MIC assay was Mueller Hinton II Broth (MHB II-Becton Dickinson, #212322, Lot #9044411) for most of the organisms. MHB II was supplemented with 2% lysed horse blood (Cleveland Scientific Lot #22299-1) to accommodate the growth of Streptococcus pneumoniae, Streptococcus pyogenes and Streptococcus agalactiae. The media were prepared at 102.5% the normal weight to offset the dilution created by the addition of 5 μL drug solution to each well of the microdilution panels. […]
Plates were stacked 3 high, covered with a lid on the top plate, placed in plastic bags, and incubated at 35° C. for approximately 18 hours for most of the isolates. The Streptococcus plates were read after 20 hours of incubation. […] The MIC was read and recorded as the lowest concentration of drug that inhibited visible growth of the organism.

SMILES: C[C@@H]1O[C@@H](Oc2c(-c3ccc(O)cc3)oc3cc(O)cc(O)c3c2=O)[C@H](OC(=O)/C=C/c2ccc(O)cc2)[C@H](OC(=O)/C=C/c2ccc(O)cc2)[C@H]1O [Compound 1, kaempferol 3-O-α-L-(2″,3″-di-E-p-coumaroyl)rhamnoside]
- reduction compared to vehicle control ([1]; 3 mg/kg): 67%
- number of MRSA recovered from muscle tissue ([1]; 3 mg/kg intraperitoneal): 2.6×10^7 cfu/g
- reduction compared to vehicle control ([1]; 15 mg/kg): 78%
- number of MRSA recovered from muscle tissue ([1]; 15 mg/kg intraperitoneal): 1.8×10^7 cfu/g
- acute toxicity at maximum dose given [2]: No untoward effect
- activity against the streptococci (streptococci): Neither compound was active
